Measurements from patent US12239733B2, “Treatment of protein aggregation myopathic and neurodegenerative diseases by parenteral administration of trehalose” (Seelos Therapeutics, Inc., priority 2013, dated 2025).
Entries after “also recorded” stand apart in the source; their conditions may differ.

Assays:
[1] = Preclinical pharmacokinetic study: plasma and muscle concentrations of trehalose after intravenous bolus (IV) and oral gavage (PO); assay type: in vivo, male Sprague-Dawley (SD) rats
Description: The plasma and muscle concentrations of trehalose in male Sprague-Dawley (SD) rats was determined after intravenous bolus (IV) and oral gavage (PO) administration.
The study included 42 SD rats (male, 250 to 350 grams in weight, the Shanghai SLAC Laboratory Animal Co. Ltd.). Animals were administered with a volume of 5 ml/kg trehalose formulation (trehalose dihydrate in sterilized water at 200 mg/mL) to achieve a nominal dose of 1 gr/kg, intravenously or orally.
Blood samples were collected after each dose administration and processed for plasma. Muscle samples (hind leg muscle) were collected and homogenized. The concentrations of trehalose in plasma and muscle homogenate samples were analyzed by qualified bioanalytical LC/MS/MS methods.
Plasma concentration data of trehalose was subjected to a non compartmental pharmacokinetic analysis using WinNonlin software program (version 6.3, Pharsight, Mountain View, CA). Zero-time intercept concentration (C0), volume of distribution (Vdss), Clearance (Cl), peak plasma concentrations (Cmax) and the corresponding peak times (Tmax), terminal half-life (T½), mean residence time (MRT) from time zero to the last time point (MRT0-last), MRT from time zero to infinity (MRT0-inf), the area under the plasma concentration-time curve (AUC) from time zero to the last time point (AUC0-last) and AUC from time zero extrapolated to infinity (AUC0-inf) were calculated using the linear/log trapezoidal rule. Nominal sampling times were used to calculate all pharmacokinetic parameters since there was not any deviation larger than 5% between the actual and nominal sampling times.
The values of muscle to plasma concentration and AUC ratio (M/P ratio) were both calculated.

[2] = test system: healthy volunteers; details: cited from earlier work
[3] = oral (ingested); cited from earlier work
[4] = test system: transgenic HD mice; details: oral, cited from earlier work
[5] = test system: transgenic OPMD mice; details: cited from earlier work
[6] = 0.2%-5% trehalose in drinking water, 5-9 weeks

## OC[C@H]1O[C@H](O[C@H]2O[C@H](CO)[C@@H](O)[C@H](O)[C@H]2O)[C@H](O)[C@@H](O)[C@@H]1O [trehalose dihydrate]
[1]; 1000 mg/kg IV or PO, male SD rats
  tolerability in rats: well tolerated

## OC[C@H]1O[C@H](O[C@H]2O[C@H](CO)[C@@H](O)[C@H](O)[C@H]2O)[C@H](O)[C@@H](O)[C@@H]1O [trehalose, α-G-glucopyranosyl α-D-glucopyranoside]
[2]; healthy volunteers, oral doses from 10 to 60 gr
  safety issues reported: mild abdominal symptoms
[2]; oral, exceeding 40-50 gram per day, higher than 50 g a day in humans
  gastrointestinal effects of high oral amounts: frequently cause diarrhea, bloating and discomfort; also recorded: causes diarrhea and bloating
[3]
  share of ingested trehalose absorbed into the blood stream: Less than 0.5%
[4]; [6]
  motor dysfunction / HD-related motor symptoms: improve motor dysfunction; also recorded: improvement of HD-related motor symptoms
  polyglutamine / huntingtin aggregates: reduce polyglutamine aggregates; also recorded: inhibition of formation of intra-nuclear huntingtin aggregates in the brain and liver
[4]; HD mouse model
  survival: extend survival
[5]; oral trehalose
  OPMD onset, phenotype, aggregate formation, cell death: delay the OPMD onset, attenuate the disease phenotype, decrease polyalanine protein aggregate formation and decrease cell death
[5]; oral, 2% trehalose in drinking water, 4-6 months
  aggregation formation and toxicity of mutant PABPN1 in myocytes: significantly reduce aggregation formation and toxicity of the mutant PABPN1 in myocytes
[1]; male, Sprague-Dawley, rat, in vivo, iv, 1000 mg/kg
  AUC0-inf/AUC0-last: 100%
[1]; rat, in vivo, iv, 1000 mg/kg
  AUC0-inf: 183000 ng·h/g
[1]; rat, in vivo, po
  plasma concentration of trehalose after oral administration: undetectable
